Patent publication US20030092760A1, “Therapeutic agent for renal failure” (Toray Industries, Inc., priority 2001, published 2003)

Tests used:
[1] = system: renal failure rat models of which the primary disease is glomerulonephritis; test: Renal failure rat models of which the primary disease is glomerulonephritis, subcutaneous osmotic pump; type: in vivo, WKY rats
From the text: Renal failure rat models of which the primary disease was glomerulonephritis were used to examine the effect of different 4,8-inter-m-phenylene prostaglandin I2 derivatives including beraprost sodium on the models. […] Two weeks after the induction, blood was collected from each rat through the tail vein to determine blood creatinine and BUN levels. […] Four types of 4,8-inter-m-phenylene prostaglandin I2 derivatives in total, including beraprost sodium, were individually administered subcutaneously to the rats from the back continuously with an osmotic pump (ALZET) for one week, beginning two weeks after induction of glomerulonephritis and continued through three weeks after the induction. The renal functions (i.e., blood creatinine and BUN levels) were determined one week after the initial administration of a drug.

[2] = system: glomerulonephritis model rats in renal failure stage; test: Glomerulonephritis model rats, renal failure stage, oral administration
Method: (§1) Eight-week-old male WKY rats (Charles River Japan Inc.) were administered intravenously with rabbit anti-rat glomerular basement membrane antiserum to induce glomerulonephritis. […] The frequency of the administration was twice a day for beraprost sodium and captopril and once a day for prednisolone. After the initial administration of a drug, urinary total protein excretion (which is a measure of renal functions) was determined.

[3] = system: ⅚ nephrectomized rat model; test: ⅚ nephrectomized rat model: observation of renal tissue images (histopathological change); type: in vivo, Wistar rats; settings: for Framework: Infiltration of mononuclear cells / Renal corpuscle: Cellular filling in glomerulus / Renal corpuscle: Coagulation of glomeruli in Bowman's capsule / Renal corpuscle: Deposition of PAS + materials in Bowman's capsule / Renal corpuscle: Epidermal growth in Bowman's capsule / Renal corpuscle: Glomerular hypertrophy / Renal corpuscle: Glomerulosclerosis / Uriniferous tuble: Basophilic degeneration of tubules / Uriniferous tuble: Proliferation of proximal tubules / Uriniferous tuble: Proteinaceous urinary casts / Uriniferous tuble: Tubular dilation: number of animals with change in 8 animals per group, five weeks after initial administration
Method: The effect of beraprost sodium on a ⅚ nephrectomized rat model, which has been widely used as a model animal for renal failure, was examined. Two-thirds of the left kidney was removed from each of 4-week-old male Wistar rats (Charles River Japan Inc.) with a razor, and all of the right kidney was then removed therefrom one week after. Three weeks after the initial surgery, blood was collected from each rat through the tail vein and serum creatinine and BUN levels were determined from the blood. At this point of time, the urine was also collected for 24 hours to determine the mass of proteins in the urine. The rats were allocated to one of the treatment groups by the stratifying continuous randomization method based on the mass of proteins in the urine and the body weight (n=8 per group). There was observed little difference in the initial values of blood creatinine and BUN values among the rats. Three weeks after the initial surgery, beraprost sodium or captopril (SIGMA, i.e., a positive control) was orally administered to each rat twice a day everyday, beginning the day on which administration of a drug was started and continued through five weeks after the administration. The determination of the renal functions was performed both three weeks and five weeks after the initial administration of a drug. The photographic images of the renal tissue were observed only five weeks after the initial administration. […] Five weeks after the initial administration, more exacerbation of chronic renal failure was observed. […] The same tendency was shown five weeks after the initial administration (Table 2).

[4] = system: ⅚ nephrectomized rat model; test: Effect on ⅚ nephrectomized rat model: renal functions; type: in vivo, Wistar rats
Method: The effect of beraprost sodium on a ⅚ nephrectomized rat model, which has been widely used as a model animal for renal failure, was examined. Two-thirds of the left kidney was removed from each of 4-week-old male Wistar rats (Charles River Japan Inc.) with a razor, and all of the right kidney was then removed therefrom one week after. Three weeks after the initial surgery, blood was collected from each rat through the tail vein and serum creatinine and BUN levels were determined from the blood. At this point of time, the urine was also collected for 24 hours to determine the mass of proteins in the urine. The rats were allocated to one of the treatment groups by the stratifying continuous randomization method based on the mass of proteins in the urine and the body weight (n=8 per group). […] Three weeks after the initial surgery, beraprost sodium or captopril (SIGMA, i.e., a positive control) was orally administered to each rat twice a day everyday, beginning the day on which administration of a drug was started and continued through five weeks after the administration. The determination of the renal functions was performed both three weeks and five weeks after the initial administration of a drug. The photographic images of the renal tissue were observed only five weeks after the initial administration.

[5] = system: glomerulonephritis model rats in inflammatory stage; test: Glomerulonephritis model rats, inflammatory stage, oral administration
Method: as §1

[6] = Table 5, 60 μg/kg group, 2 weeks after induction (before administration)
[7] = Table 5, 60 μg/kg s.c. osmotic pump, 3 weeks after induction (1 week after the initial administration)
[8] = 60 μg/kg group, 2 weeks after induction (before administration)
[9] = 60 μg/kg s.c. osmotic pump, 3 weeks after induction (1 week after the initial administration)
[10] = 200 μg/kg group, 2 weeks after induction (before administration)
[11] = 200 μg/kg s.c. osmotic pump, 3 weeks after induction (1 week after the initial administration)
[12] = 100 μg/kg oral twice a day, five weeks after the administration of a drug
[13] = 100 μg/kg oral twice a day, three weeks after the administration of a drug
[14] = 300 μg/kg oral twice a day, five weeks after the administration of a drug
[15] = 300 μg/kg oral twice a day, three weeks after the administration of a drug

## O=C([O-])CCCc1cccc2c1OC1CC(O)C(/C=C/C(O)c3ccccc3)C21.[Na+] (stereo not shown) [Compound 3]
[1]; [6]
  BUN: 28 ± 3 mg/dL
  Blood creatinine: 0.45 ± 0.05 mg/dL
[1]; [7]
  BUN: 30 ± 3 mg/dL
  Blood creatinine: 0.39 ± 0.04 mg/dL

## O=C([O-])/C=C/Cc1cccc2c1OC1CC(O)C(/C=C/C(O)c3ccccc3)C21.[Na+] (stereo not shown) [Compound 2]
[1]; [6]
  BUN: 28 ± 2 mg/dL
  Blood creatinine: 0.45 ± 0.04 mg/dL
[1]; [7]
  BUN: 31 ± 3 mg/dL
  Blood creatinine: 0.44 ± 0.05 mg/dL

## CC#CCC(C)[C@H](O)/C=C/C1[C@H](O)C[C@@H]2Oc3c(CCCC(=O)[O-])cccc3[C@H]12.[Na+] (mixture of isomers) [Beraprost sodium, beraprost sodium]
[2]; 300 μg/kg group, renal failure stage Exp. 1, 2 weeks after induction (before administration)
  Urinary total protein excretion: 374 ± 21 mg/24 hr
[2]; 300 μg/kg group, renal failure stage Exp. 2, 2 weeks after induction (before administration)
  Urinary total protein excretion: 321 ± 23 mg/24 hr
[2]; 300 μg/kg oral twice a day, renal failure stage Exp. 1, 3 weeks after induction (1 week after initial administration)
  Urinary total protein excretion: 300 ± 51 mg/24 hr
[2]; 300 μg/kg oral twice a day, renal failure stage Exp. 2, 4 weeks after induction (2 week after initial administration)
  Urinary total protein excretion: 295 ± 46 mg/24 hr
[2]; renal failure stage, two weeks through four weeks after induction
  Increase in urinal total protein excretion (in words): markedly prevented
[1]; [8]
  BUN: 28 ± 3 mg/dL
  Blood creatinine: 0.61 ± 0.07 mg/dL
[1]; [9]
  BUN: 31 ± 2 mg/dL
  Blood creatinine: 0.48 ± 0.04 mg/dL
[1]; [10]
  BUN: 30 ± 3 mg/dL
  Blood creatinine: 0.62 ± 0.06 mg/dL
[1]; [11]
  BUN: 25 ± 1 mg/dL
  Blood creatinine: 0.49 ± 0.04 mg/dL
[1]; three weeks after the induction of glomerulonephritis
  Blood creatinine and BUN levels compared with the control group (in words): significantly decreased
[3]; 100 μg/kg
  Framework: Infiltration of mononuclear cells: 7
  Renal corpuscle: Cellular filling in glomerulus: 7
  Renal corpuscle: Coagulation of glomeruli in Bowman's capsule: 2
  Renal corpuscle: Deposition of PAS + materials in Bowman's capsule: 2
  Renal corpuscle: Epidermal growth in Bowman's capsule: 1
  Renal corpuscle: Glomerular hypertrophy: 3
  Renal corpuscle: Glomerulosclerosis: 2
  Uriniferous tuble: Basophilic degeneration of tubules: 8
  Uriniferous tuble: Proliferation of proximal tubules: 8
  Uriniferous tuble: Proteinaceous urinary casts: 5
  Uriniferous tuble: Tubular dilation: 8
[3]; 300 μg/kg
  Framework: Infiltration of mononuclear cells: 7
  Renal corpuscle: Cellular filling in glomerulus: 4
  Renal corpuscle: Coagulation of glomeruli in Bowman's capsule: 1
  Renal corpuscle: Deposition of PAS + materials in Bowman's capsule: 1
  Renal corpuscle: Epidermal growth in Bowman's capsule: 1
  Renal corpuscle: Glomerular hypertrophy: 2
  Renal corpuscle: Glomerulosclerosis: 1
  Uriniferous tuble: Basophilic degeneration of tubules: 8
  Uriniferous tuble: Proliferation of proximal tubules: 8
  Uriniferous tuble: Proteinaceous urinary casts: 2
  Uriniferous tuble: Tubular dilation: 8
[3]; five weeks after the initial administration
  Progress of the glomerular conditions (renal tissue images, in words): markedly prevented
[4]; [12]
  Blood urea nitrogen: 45.5 ± 3.3 mg/dL
  Creatinine clearance: 156.9 ± 19.5 μl/min/100 gBW
  Urinary protein excretion: 276.5 ± 69.2 mg/24 hr/kgBW
  Urinary volume: 21.7 ± 3.1 ml/24 hr
[4]; [13]
  Blood urea nitrogen: 55.9 ± 3.7 mg/dL
  Creatinine clearance: 134.1 ± 11.0 μl/min/100 gBW
  Urinary protein excretion: 125.3 ± 20.8 mg/24 hr/kgBW
  Urinary volume: 20.1 ± 2.8 ml/24 hr
[4]; [14]
  Blood urea nitrogen: 45.1 ± 3.5 mg/dL
  Creatinine clearance: 143.5 ± 10.0 μl/min/100 gBW
  Urinary protein excretion: 197.1 ± 21.1 mg/24 hr/kgBW
  Urinary volume: 20.4 ± 1.7 ml/24 hr
[4]; [15]
  Blood urea nitrogen: 50.9 ± 3.6 mg/dL
  Creatinine clearance: 136.4 ± 9.9 μl/min/100 gBW
  Urinary protein excretion: 154.4 ± 53.0 mg/24 hr/kgBW
  Urinary volume: 20.4 ± 3.7 ml/24 hr
[4]; three weeks after the initial administration, same tendency five weeks after
  Effect on urinary protein level, creatinine clearance and BUN level (in words): significant prevention of increase in the urinary protein level and prevention of reduction in the creatinine clearance and increase in the BUN level
[5]; 300 μg/kg oral twice a day, 7 days after induction (1 week after initial administration)
  Urinary total protein excretion: 17 ± 7 mg/24 hr
[5]; day 1 through day 7 after induction
  Increase in urinal total protein excretion (in words): markedly prevented
